The record followed here is PubChem BioAssay (NCI).

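Method: 48-hour compound exposure of cells in 96-well plates, five concentrations, linear interpolation of endpoints. GI50 = concentration required for 50% inhibition of growth. At the TGI there is no net growth.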

Test systems include MCF7 breast; SK-MEL-2 melanoma; UACC-62 melanoma; EKVX NSCLC; ACHN renal; RPMI-8226 leukemia; UACC-257 melanoma; SK-MEL-28 melanoma; NCI-H460 lung; A498 renal.
Assay in all cases: NCI anticancer screen, dose series, 48 h

Regarding `COc1cc(/C=C2/C(=O)N(C(=O)c3ccccc3O)N=C2C)ccc1O`, the TGI with MCF7 breast is over 100 µM; in the experiment with SK-MEL-2 melanoma it was over 100 µM; in the experiment on UACC-62 melanoma, 0.364 µM; with EKVX NSCLC, over 77.7 µM; in the experiment with ACHN renal, over 100 µM; in the experiment on RPMI-8226 leukemia, over 100 µM. Besides, the TGI in the experiment on UACC-257 melanoma, with SK-MEL-28 melanoma and in the experiment on NCI-H460 lung was over 100 µM in each case.
For the compound `CC(=O)N=S(NC(=O)c1ccc(C)cc1)C(Cl)(Cl)Cl` (stereo not drawn), the TGI with MCF7 breast, in the experiment on UACC-62 melanoma, with EKVX NSCLC, in the experiment on ACHN renal, in the experiment with RPMI-8226 leukemia and in the experiment with UACC-257 melanoma was over 100 µM in each case. Also, the TGI in the experiment on SK-MEL-28 melanoma and in the experiment on NCI-H460 lung was over 100 µM throughout.
Consider `CCOC(=O)c1cc(C(=O)O)c(=O)n2c1[nH]c1ccccc12`, for which the TGI in the experiment with SK-MEL-2 melanoma, in the experiment with UACC-62 melanoma, in the experiment with EKVX NSCLC, in the experiment on ACHN renal, with RPMI-8226 leukemia and with UACC-257 melanoma was over 100 µM each time. Also, the TGI in the experiment with A498 renal, in the experiment with SK-MEL-28 melanoma and in the experiment with NCI-H460 lung was over 100 µM each time.
Turning to `O=c1/c(=C/c2ccc3c(c2)OCO3)sc2nnc(Cc3ccccc3)n12`, the TGI in the experiment with SK-MEL-2 melanoma, with UACC-62 melanoma, in the experiment on EKVX NSCLC, with ACHN renal, in the experiment with RPMI-8226 leukemia and in the experiment with UACC-257 melanoma was over 100 µM in each case. For the same compound, the TGI with A498 renal, with SK-MEL-28 melanoma and with NCI-H460 lung was over 100 µM in each case.
Turning to `c1cc2ccc1C1NCCCN1CCN1CCCNC1c1ccc(cc1)C1NCCCN1CCN1CCCNC21` (stereo not drawn), the TGI in the experiment with SK-MEL-2 melanoma, in the experiment on UACC-62 melanoma, in the experiment on EKVX NSCLC, with ACHN renal, in the experiment with RPMI-8226 leukemia and in the experiment with UACC-257 melanoma was over 100 µM in each case. Besides, the TGI in the experiment with A498 renal, with SK-MEL-28 melanoma and in the experiment with NCI-H460 lung was over 100 µM each time.
In the case of `C1=CC=C2NCCSCCNC3=CC=CC=CC3=NCCSCCN=C2C=C1`, the TGI with SK-MEL-2 melanoma, in the experiment on UACC-62 melanoma, in the experiment with EKVX NSCLC, in the experiment on ACHN renal, in the experiment on RPMI-8226 leukemia and in the experiment on UACC-257 melanoma was over 100 µM throughout. Moreover, the TGI with A498 renal, in the experiment on SK-MEL-28 melanoma and in the experiment on NCI-H460 lung was over 100 µM in each case.
For `COC(=O)Cc1cc(=O)oc2c1C(=O)CCC2`, the TGI in the experiment with SK-MEL-2 melanoma, in the experiment with UACC-62 melanoma, in the experiment with EKVX NSCLC, in the experiment on ACHN renal, in the experiment on RPMI-8226 leukemia and with UACC-257 melanoma was over 100 µM in each case. Besides, the TGI with A498 renal, with SK-MEL-28 melanoma and in the experiment with NCI-H460 lung was over 100 µM in each case.
`O=C1OC(c2ccc(Cl)c3ccccc23)c2ccccc21` (stereo not drawn): the TGI in the experiment with SK-MEL-2 melanoma, in the experiment on UACC-62 melanoma, with EKVX NSCLC, in the experiment on ACHN renal, in the experiment with RPMI-8226 leukemia and in the experiment with UACC-257 melanoma was over 100 µM throughout. Also, the TGI in the experiment on A498 renal, in the experiment with SK-MEL-28 melanoma and in the experiment on NCI-H460 lung was over 100 µM in each case.
Regarding `CN1C=C(C(N)=O)C2CC(O)[C@@](NC(=O)CS(N)(=O)=O)(C(=O)O)C2C1` (stereo partly drawn), the TGI with SK-MEL-2 melanoma was 8.22 µM; with UACC-62 melanoma, 7.02 µM; in the experiment with EKVX NSCLC it was over 42.6 µM; in the experiment with ACHN renal, 97.3 µM; in the experiment on RPMI-8226 leukemia it was 58.9 µM; in the experiment with UACC-257 melanoma, 27 µM. Also, the TGI in the experiment with A498 renal came out at 4.96 µM; in the experiment on SK-MEL-28 melanoma, 7.32 µM; in the experiment with NCI-H460 lung, 12.6 µM.
Regarding `NC(=O)c1ncn(C2OC(CO)C(O)C2O)c1NC(=S)NC(=O)c1ccccc1` (stereo not drawn), the TGI in the experiment with SK-MEL-2 melanoma, in the experiment with UACC-62 melanoma, in the experiment on EKVX NSCLC, in the experiment on ACHN renal, in the experiment with RPMI-8226 leukemia and with UACC-257 melanoma was over 100 µM each time. The TGI with A498 renal, in the experiment with SK-MEL-28 melanoma and in the experiment with NCI-H460 lung was over 100 µM each time.
As for `CC(=O)Oc1ccc2c(c1)O/C(=C\c1ccc(O)cc1)C2=O`, the TGI with MCF7 breast, in the experiment on UACC-62 melanoma, in the experiment on EKVX NSCLC, with ACHN renal, in the experiment on RPMI-8226 leukemia and in the experiment on UACC-257 melanoma was over 100 µM each time. Further, the TGI with SK-MEL-28 melanoma and with NCI-H460 lung was over 100 µM each time.
Consider `O=c1ncccn1C1OC(CO)C(O)C1F` (stereo not drawn), for which the TGI in the experiment on SK-MEL-2 melanoma, in the experiment on UACC-62 melanoma, in the experiment on EKVX NSCLC, in the experiment with ACHN renal, with RPMI-8226 leukemia and in the experiment with UACC-257 melanoma was over 100 µM in each case. The TGI in the experiment with A498 renal, in the experiment with SK-MEL-28 melanoma and in the experiment with NCI-H460 lung was over 100 µM throughout. The GI50 in the experiment with UACC-62 melanoma and in the experiment on NCI-H460 lung was over 100 µM each time.
